From PubChem BioAssay AID2060903 (Molecular Pharmacology Branch, DTP, NCI, 2025)
One block for each molecule: values may come before it.

Tested on: 377384-186-R-J1-PDC complex spheroid viability
Test: Anticancer human tumor 377384-186-R-J1-PDC patient-derived pancreatic carcinoma cell line growth inhibition [RAS]
Conditions: for IC50: curve of first compound; for viability, T/C: stronger effect = lower value
From the text: RAS pathway inhibitors in Combinations in Complex Spheroids
A high-throughput screen of multi-cell type tumor spheroids was designed to identify active combinations of RAS pathway inhibitors and targeted small molecules. Complex spheroids include a stromal component modeled by human endothelial cells (HUVEC) and fibroblasts modeled by human mesenchymal stem cells (MSCs). The concentration ranges selected for each drug and investigational agent were based upon clinically achievable concentrations if the clinical Cmax of the agent was known.
Compounds. The drugs and investigational agents: abemaciclib (NSC768073), cobimetinib (NSC768068), divarasib (GDC6063, NSC841802), docetaxel (NSC628503), GDC-1971 (RLY-1971, NSC841576), gemcitabine (NSC613327), inavolisib (NSC800729), ipatasertib (NSC767898), KB-0742 (NSC834161), MRTX-1133 (NSC836407), osimertinib (NSC779217), RMC-4630 (NSC839698), RMC-6236 (NSC851965), RMC-6291 (NSC852671), Ro-3306 (NSC812927), sapanisertib (NSC764658), SN-38 (NSC673596), staurosporine (NSC755774), SY5609 (NSC837396), and tovorafenib (DAY101, NSC766906), were obtained from the National Cancer Institute (NCI) Developmental Therapeutics Program Chemical Repository. The FDA-approved anticancer drug set is available from the NCI Developmental Therapeutics Program. […] The stock solutions were prepared in dimethyl sulfoxide (DMSO, Sigma-Aldrich, St. Louis, MO, cat. D2650) at 800-fold the tested concentration and stored at -70 degrees C prior to their use. All drugs and investigational agents were tested over a range starting from a high concentration at or near the clinical Cmax and decreasing in half-log increments. If the clinical Cmax for an agent had not been determined, the highest concentration tested was 10 microM.
Cell Culture. All cells were maintained in an incubator at 37 degrees C and 5% CO2 with 95% humidity. The PDC lines were cultured according to standard operating procedures established by the NCI PDMR. All PDCs were thawed and cultured in Matrigel-coated flasks prepared with a working solution of 1X Ham's F-12 nutrient mix, without supplementation (Invitrogen, Waltham, MA, cat. 11765054), 100 U/mL penicillin-streptomycin (Invitrogen, cat. 15140122), and 2.5% Matrigel (Corning Inc., Corning, NY, cat. 354248) for the first three passages. The 362531-283-R-J2-PDC and 782815-120-R-J1-PDC lines were cultured in 6C/Colon 1B media, which includes advanced DMEM/F-12 (Thermo Fisher Scientific, cat. 12634028), 10 mM HEPES (Thermo Fisher Scientific, cat. 15630080), 1X GlutaMAX supplement (Thermo Fisher Scientific, cat. 35050061), 0.1 mg/mL primocin (InvivoGen, San Diego, CA, cat. ant-pm-2), 10% defined fetal bovine serum, heat inactivated (HyClone Laboratories Inc., Logan, UT, cat. SH30070.03HI), 50% L-WRN conditioned media (ATCC, cat. CRL-3276), 1.25 mM N-Acetyl-L-cysteine (Sigma-Aldrich, cat. A9165), 10 mM nicotinamide (Sigma-Aldrich, cat. N0636), 1X B-27 supplement (Thermo Fisher Scientific, cat. 17504044), 1X N-2 supplement (Thermo Fisher Scientific, cat. 17502048), 50 ng/mL human EGF (Thermo Fisher Scientific, cat. PHG0311), and 10 microM Y-27632 dihydrochloride (Tocris Bioscience, cat. 1254). The K12877-001-R-J1-PDC line was cultured in 6I media, which includes all 6C/Colon 1B media plus 10 ng/mL human FGF-10 (PeproTech, cat. 100-26), 1 ng/mL human FGF-2 (PeproTech, cat. 100-18B), 1 µM prostaglandin E2 (Tocris Bioscience, cat. 2296), […] hydrocortisone (Sigma-Aldrich, cat. H4001), and […] bovine insulin (Sigma-Aldrich, cat. I6634). The K86415-001-R-J1-PDC line was cultured in 6D media, which includes all 6C/Colon 1B media components minus the L-WRN conditioned media. The 485176-168-R4-J1-PDC was cultured in PANC media, which includes all 6C/Colon 1B media plus 100 ng/mL human FGF-10 (PeproTech, cat. 100-26), 500 nM SB-431542 (Selleckchem, cat. S1067), and 10 nM gastrin (Tocris Bioscience, cat. 3006). […]

[1] = second compound 0.0316 µM, first compound 0.0316 µM
[2] = second compound 0.0316 µM, first compound 0.1 µM
[3] = second compound 0.0316 µM, first compound 0.316 µM
[4] = second compound 0.0316 µM, first compound 1 µM
[5] = second compound 0.1 µM, first compound 0.0316 µM
[6] = second compound 0.1 µM, first compound 0.1 µM
[7] = second compound 0.1 µM, first compound 0.316 µM
[8] = second compound 0.1 µM, first compound 1 µM
[9] = second compound 0.316 µM, first compound 0.0316 µM
[10] = second compound 0.316 µM, first compound 0.1 µM
[11] = second compound 0.316 µM, first compound 0.316 µM
[12] = second compound 0.316 µM, first compound 1 µM
[13] = second compound 1 µM, first compound 0.0316 µM
[14] = second compound 1 µM, first compound 0.1 µM
[15] = second compound 1 µM, first compound 0.316 µM
[16] = second compound 1 µM, first compound 1 µM
[17] = second compound 3.16 µM, first compound 0.0316 µM
[18] = second compound 3.16 µM, first compound 0.1 µM
[19] = second compound 3.16 µM, first compound 0.316 µM
[20] = second compound 3.16 µM, first compound 1 µM
[21] = second compound 10 µM, first compound 0.0316 µM
[22] = second compound 10 µM, first compound 0.1 µM
[23] = second compound 10 µM, first compound 0.316 µM
[24] = second compound 10 µM, first compound 1 µM
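Further: spheroids exposed to compounds for seven days before readout.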

IC50 (second compound 0.0316 µM): < 0.0316 µM
IC50 (second compound 0.1 µM): < 0.0316 µM
IC50 (second compound 0.316 µM): < 0.0316 µM
IC50 (second compound 1 µM): < 0.0316 µM
IC50 (second compound 3.16 µM): < 0.0316 µM
IC50 (second compound 10 µM): < 0.0316 µM
Structure (SMILES): CC(=O)OC12COC1CC(O)C1(C)C(=O)C(O)C3=C(C)C(OC(=O)C(O)C(NC(=O)OC(C)(C)C)c4ccccc4)CC(O)(C(OC(=O)c4ccccc4)C21)C3(C)C (centres undefined) + C#Cc1c(F)ccc2cc(O)cc(-c3ncc4c(N5CC6CCC(C5)N6)nc(OCC56CCCN5CC(F)C6)nc4c3F)c12
viability, T/C [1]: 2.38%
viability, T/C [2]: 3.09%
viability, T/C [3]: 3.14%
viability, T/C [4]: 3.55%
viability, T/C (second compound 0.0316 µM, first compound 3.16 µM): 3.94%
viability, T/C (second compound 0.0316 µM, first compound 10 µM): 3.06%
viability, T/C [5]: 2.23%
viability, T/C [6]: 2.57%
viability, T/C [7]: 2.12%
viability, T/C [8]: 1.89%
viability, T/C (second compound 0.1 µM, first compound 3.16 µM): 1.87%
viability, T/C (second compound 0.1 µM, first compound 10 µM): 3.18%
viability, T/C [9]: 2.05%
viability, T/C [10]: 2.18%
viability, T/C [11]: 2%
viability, T/C [12]: 2.01%
viability, T/C (second compound 0.316 µM, first compound 3.16 µM): 2.08%
viability, T/C (second compound 0.316 µM, first compound 10 µM): 1.78%
viability, T/C [13]: 1.73%
viability, T/C [14]: 1.59%
viability, T/C [15]: 1.53%
viability, T/C [16]: 1.76%
viability, T/C (second compound 1 µM, first compound 3.16 µM): 1.09%
viability, T/C (second compound 1 µM, first compound 10 µM): 1.72%
viability, T/C [17]: 1.58%
viability, T/C [18]: 1.73%
viability, T/C [19]: 1.51%
viability, T/C [20]: 1.74%
viability, T/C (second compound 3.16 µM, first compound 3.16 µM): 1.58%
viability, T/C (second compound 3.16 µM, first compound 10 µM): 1.95%
viability, T/C [21]: 0.77%
viability, T/C [22]: 0.5%
viability, T/C [23]: 0.68%
viability, T/C [24]: 0.75%
viability, T/C (second compound 10 µM, first compound 3.16 µM): 0.42%
viability, T/C (second compound 10 µM, first compound 10 µM): 0.94%

IC50 (second compound 0.0316 µM): < 0.00316 µM
IC50 (second compound 0.1 µM): < 0.00316 µM
IC50 (second compound 0.316 µM): < 0.00316 µM
IC50 (second compound 1 µM): < 0.00316 µM
IC50 (second compound 3.16 µM): < 0.00316 µM
IC50 (second compound 10 µM): < 0.00316 µM
Structure (SMILES): Nc1ccn(C2OC(CO)C(O)C2(F)F)c(=O)n1 (centres undefined) + C#Cc1c(F)ccc2cc(O)cc(-c3ncc4c(N5CC6CCC(C5)N6)nc(OCC56CCCN5CC(F)C6)nc4c3F)c12
viability, T/C (second compound 0.0316 µM, first compound 0.00316 µM): 18.7%
viability, T/C (second compound 0.0316 µM, first compound 0.01 µM): 10.9%
viability, T/C [1]: 5.1%
viability, T/C [2]: 2.32%
viability, T/C [3]: 1.53%
viability, T/C [4]: 1.48%
viability, T/C (second compound 0.1 µM, first compound 0.00316 µM): 10.6%
viability, T/C (second compound 0.1 µM, first compound 0.01 µM): 5.99%
viability, T/C [5]: 3.67%
viability, T/C [6]: 2.25%
viability, T/C [7]: 1.8%
viability, T/C [8]: 1.59%
viability, T/C (second compound 0.316 µM, first compound 0.00316 µM): 3.96%
viability, T/C (second compound 0.316 µM, first compound 0.01 µM): 3.01%
viability, T/C [9]: 2.14%
viability, T/C [10]: 1.91%
viability, T/C [11]: 1.53%
viability, T/C [12]: 1.47%
viability, T/C (second compound 1 µM, first compound 0.00316 µM): 2.36%
viability, T/C (second compound 1 µM, first compound 0.01 µM): 2.41%
viability, T/C [13]: 1.7%
viability, T/C [14]: 1.46%
viability, T/C [15]: 1.44%
viability, T/C [16]: 1.36%
viability, T/C (second compound 3.16 µM, first compound 0.00316 µM): 2.1%
viability, T/C (second compound 3.16 µM, first compound 0.01 µM): 1.41%
viability, T/C [17]: 1.83%
viability, T/C [18]: 1.8%
viability, T/C [19]: 1.48%
viability, T/C [20]: 1.3%
viability, T/C (second compound 10 µM, first compound 0.00316 µM): 1.37%
viability, T/C (second compound 10 µM, first compound 0.01 µM): 1.08%
viability, T/C [21]: 1.21%
viability, T/C [22]: 1.3%
viability, T/C [23]: 1.62%
viability, T/C [24]: 1.15%
